Structures can show the parent of a compound that is named as a salt.
Columns and labels:
normal human plasma = assay: Anticoagulant activity, partial thromboplastin time (APTT) assay; type: biochemical; settings: ratio >1 indicates weaker activity relative to heparin on a μg/mL comparison
Method: A BBL Fibrometer automatic precesion coagulation timer utilizing a 0.3 mL probe was employed. An Ellagic acid activated partial thromboplastin was used for these experiments. This reagent was added to human citrated plasma equilibrated at 37° C. in a plastic well in the clot timer. Calcium at 37° C. was added, the clot timer was started and the time for fibrin clot formation (in seconds) was recorded. […] Clotting tests at all concentrations were run in triplicate. Analysis of variance for a randomized block design was used to determine the significance of differences observed in the clotting times.

[1] = tested on: Porcine Smooth Muscle Cell; assay: Porcine smooth muscle cell antiproliferation, 3H thymidine incorporation; type: cell-based; settings: for IC50: porcine aortic smooth muscle cells, 3H thymidine incorporation
Method: Cells were assayed in early passage (generally passage 3-7) at sub-confluent conditions. […] At sub-confluence, the cells were placed in a defined serum free medium (AIM-V; Gibco) for 24-48 h prior to initiating the experimental protocol.
At the completion of the experiment, plates were placed on ice, washed three times with ice cold PBS and incubated in ice cold 10% trichloroacetic acid (TCA) for 30 min to remove acid soluble proteins. Solution was transferred to scintillation vials containing 0.4N HCl (500 μL/vial to neutralize NaOH) and each well was rinsed two times with water (500 μL) for a total volume of 2 mL/vial.
Data was obtained, in triplicate, for both control and experimental samples. […] Experimental data was obtained from cells maximally stimulated with growth factor or serum and treated with compound. Data was expressed as a percent of control from which IC50 s could be determined.

human endothelial cell = assay: Effect on endothelial cell growth vs. smooth muscle cell proliferation; type: cell-based; settings: driven by 2% FBS, at doses inhibitory towards human SMC proliferation driven by 10% FBS; FIG. 1
Excerpt: (§1) The ability of the compounds of the present invention to inhibit smooth muscle cell proliferation and modulate endothelial cell growth was established using isolated aortic cells obtained from commercial sources or, for certain species, prepared in-house. Cell lines used in this study include human and porcine aortic smooth muscle cells and human aortic endothelial cells. Human aortic cell lines were obtained from Clonetics Corporation (San Diego).
B. Effects of compounds on cell proliferation using ^3 H Thymidine incorporation
Cells were assayed in early passage (generally passage 3-7) at sub-confluent conditions. Cultures were grown in 16 mm (24 well) multi-well culture dishes in media 199 supplemented with 10% fetal bovine serum and 2% antibiotic/antimycotic. At sub-confluence, the cells were placed in a defined serum free medium (AIM-V; Gibco) for 24-48 h prior to initiating the experimental protocol.
Growth factor and serum stimulations were optimized for each cell type.
Compounds were added to each well at 50 fold dilution (20 μL/well) and the plates were incubated for 24-36 h at 37° C. in 5% CO2. […] Compounds were routinely assayed at 1, 10, and 100 μM. […]
Data was obtained, in triplicate, for both control and experimental samples. […] Data was expressed as a percent of control from which IC50 s could be determined. […]

[2] = tested on: human and porcine aortic smooth muscle cells and human aortic endothelial cells; assay: Cytotoxicity, MTT assay; type: cell-based; settings: up to 250 μM, 24 h at 37° C., without serum
Excerpt: as §1
Briefly, cells were again grown in 24 well plates to 70-80% confluency and, as before, serum deprived for 24-48 h prior to initiation of the experimental protocol. To insure that the MTT assay monitored toxicity rather than proliferation, cells were incubated with 250 μM drug in fresh medium without serum for 24 h at 37° C. in a humidified CO2 incubator. Upon completion of the compound treatment, MTT (3-[4,5-dimethylthiazol-2-yl]-2,5-diphenyltetrazolium bromide) indicator dye was added for 4 h at 37° C. Cells were then lysed and aliquots from each well were transferred to a 96 well plate for analysis. Absorbance at 570 nm wavelength with a reference wavelength of 630 nm was recorded using an ELISA plate reader. Results are reported as percent viable using no drug (100% viable) and pre-solubilization (0% viable) standards.

Row | Molecule | Anticoagulation Activity (APTT) Relative to Heparin (normal human plasma) | IC50 [1] [µM] | other results
1 | O=C(Nc1cc(CO[C@@H]2O[C@H](COS(=O)(=O)[O-])[C@@H](O[C@@H]3O[C@H](COS(=O)(=O)[O-])[C@H](OS(=O)(=O)[O-])[C@H](OS(=O)(=O)[O-])[C@H]3OS(=O)(=O)[O-])[C@H](OS(=O)(=O)[O-])[C@H]2OS(=O)(=O)[O-])cc(CO[C@@H]2O[C@H](COS(=O)(=O)[O-])[C@@H](O[C@@H]3O[C@H](COS(=O)(=O)[O-])[C@H](OS(=O)(=O)[O-])[C@H](OS(=O)(=O)[O-])[C@H]3OS(=O)(=O)[O-])[C@H](OS(=O)(=O)[O-])[C@H]2OS(=O)(=O)[O-])c1)c1ccc(-c2ccc(C(=O)Nc3cc(CO[C@@H]4O[C@H](COS(=O)(=O)[O-])[C@@H](O[C@@H]5O[C@H](COS(=O)(=O)[O-])[C@H](OS(=O)(=O)[O-])[C@H](OS(=O)(=O)[O-])[C@H]5OS(=O)(=O)[O-])[C@H](OS(=O)(=O)[O-])[C@H]4OS(=O)(=O)[O-])cc(CO[C@@H]4O[C@H](COS(=O)(=O)[O-])[C@@H](O[C@@H]5O[C@H](COS(=O)(=O)[O-])[C@H](OS(=O)(=O)[O-])[C@H](OS(=O)(=O)[O-])[C@H]5OS(=O)(=O)[O-])[C@H](OS(=O)(=O)[O-])[C@H]4OS(=O)(=O)[O-])c3)cc2)cc1.[Na+].[Na+].[Na+].[Na+].[Na+].[Na+].[Na+].[Na+].[Na+].[Na+].[Na+].[Na+].[Na+].[Na+].[Na+].[Na+].[Na+].[Na+].[Na+].[Na+].[Na+].[Na+].[Na+].[Na+].[Na+].[Na+].[Na+].[Na+] [EXAMPLE 16, Biphenyl-4,4'-dicarboxylic Acid Bis{[3,5-bis(hepta-O-sulfato-β-D-lactosyloxymethyl)phenyl]amide}Octacosasodium Salt] | 2.2 | 3.6 | –
2 | O=C(Nc1cc(CO[C@@H]2O[C@H](COS(=O)(=O)O)[C@@H](O[C@H]3O[C@H](COS(=O)(=O)O)[C@@H](OS(=O)(=O)O)[C@H](OS(=O)(=O)O)[C@H]3OS(=O)(=O)O)[C@H](OS(=O)(=O)O)[C@H]2OS(=O)(=O)O)cc(CO[C@@H]2O[C@H](COS(=O)(=O)O)[C@@H](O[C@H]3O[C@H](COS(=O)(=O)O)[C@@H](OS(=O)(=O)O)[C@H](OS(=O)(=O)O)[C@H]3OS(=O)(=O)O)[C@H](OS(=O)(=O)O)[C@H]2OS(=O)(=O)O)c1)c1ccc(-c2ccc(C(=O)Nc3cc(CO[C@@H]4O[C@H](COS(=O)(=O)O)[C@@H](O[C@H]5O[C@H](COS(=O)(=O)O)[C@@H](OS(=O)(=O)O)[C@H](OS(=O)(=O)O)[C@H]5OS(=O)(=O)O)[C@H](OS(=O)(=O)O)[C@H]4OS(=O)(=O)O)cc(CO[C@@H]4O[C@H](COS(=O)(=O)O)[C@@H](O[C@H]5O[C@H](COS(=O)(=O)O)[C@@H](OS(=O)(=O)O)[C@H](OS(=O)(=O)O)[C@H]5OS(=O)(=O)O)[C@H](OS(=O)(=O)O)[C@H]4OS(=O)(=O)O)c3)cc2)cc1 [EXAMPLE 18] | 2.1 | – | effect on human endothelial cell growth (human endothelial cell): enhance human endothelial cell growth
3 | O=C(Nc1cc(CO[C@@H]2O[C@H](COS(=O)(=O)O)[C@@H](O[C@@H]3O[C@H](COS(=O)(=O)O)[C@@H](OS(=O)(=O)O)[C@H](OS(=O)(=O)O)[C@H]3OS(=O)(=O)O)[C@H](OS(=O)(=O)O)[C@H]2OS(=O)(=O)O)cc(CO[C@@H]2O[C@H](COS(=O)(=O)O)[C@@H](O[C@@H]3O[C@H](COS(=O)(=O)O)[C@@H](OS(=O)(=O)O)[C@H](OS(=O)(=O)O)[C@H]3OS(=O)(=O)O)[C@H](OS(=O)(=O)O)[C@H]2OS(=O)(=O)O)c1)c1ccc(C(=O)Nc2cc(CO[C@@H]3O[C@H](COS(=O)(=O)O)[C@@H](O[C@@H]4O[C@H](COS(=O)(=O)O)[C@@H](OS(=O)(=O)O)[C@H](OS(=O)(=O)O)[C@H]4OS(=O)(=O)O)[C@H](OS(=O)(=O)O)[C@H]3OS(=O)(=O)O)cc(CO[C@@H]3O[C@H](COS(=O)(=O)O)[C@@H](O[C@@H]4O[C@H](COS(=O)(=O)O)[C@@H](OS(=O)(=O)O)[C@H](OS(=O)(=O)O)[C@H]4OS(=O)(=O)O)[C@H](OS(=O)(=O)O)[C@H]3OS(=O)(=O)O)c2)cc1 [EXAMPLE 23, N,N '-Bis[3,5-bis(hepta-O-sulfato-β-D-cellobiosyloxymethyl)phenyl]terephthalamide Octacosasodium Salt] | 2.0 | – | –
4 | Cc1ccc(CO[C@@H]2O[C@H](COS(=O)(=O)O)[C@@H](OS(=O)(=O)O)[C@H](OS(=O)(=O)O)[C@H]2OS(=O)(=O)O)cc1NC(=O)CCC(=O)Nc1cc(CO[C@@H]2O[C@H](COS(=O)(=O)O)[C@@H](OS(=O)(=O)O)[C@H](OS(=O)(=O)O)[C@H]2OS(=O)(=O)O)ccc1C [EXAMPLE 25, N,N'-Bis[2-methyl-5-(2,3,4,6-tetra-O-suifato-β-D-glucopyranosyloxymethyl)phenyl]succinamide Octasodium Salt] | – | – | inhibition at 50 µg/mL ([1]; Sus scrofa, read-out: Porcine Smooth Muscle Cell Antiproliferation, % Inhibition at 50 μg/mL): 8%
5 | Cc1ccc(CO[C@@H]2O[C@H](COS(=O)(=O)O)[C@@H](O[C@H]3O[C@H](COS(=O)(=O)O)[C@@H](OS(=O)(=O)O)[C@H](OS(=O)(=O)O)[C@H]3OS(=O)(=O)O)[C@H](OS(=O)(=O)O)[C@H]2OS(=O)(=O)O)cc1NC(=O)c1cccc(NC(=O)Nc2cccc(C(=O)Nc3cc(CO[C@@H]4O[C@H](COS(=O)(=O)O)[C@@H](O[C@H]5O[C@H](COS(=O)(=O)O)[C@@H](OS(=O)(=O)O)[C@H](OS(=O)(=O)O)[C@H]5OS(=O)(=O)O)[C@H](OS(=O)(=O)O)[C@H]4OS(=O)(=O)O)ccc3C)c2)c1 [EXAMPLE 26, STEP 5] | – | – | cytotoxicity (MTT) [2]: No toxicity was observed up to 250 μM
6 | Decanedioic Acid Bis{[3,5-bis(hepta-O-sulfato-β-D-cellobiosyloxymethyl}phenyl]amide} Octacosasodium Salt [EXAMPLE 14] | 6.7 | 3 | –

— US5498775A, “Polyanionic benzylglycosides as inhibitors of smooth muscle cell proliferation” (American Home Products Corporation, priority 1994, dated 1996)
